From patent US8748624B2, “Picolinamido-propanoic acid derivatives useful as glucagon receptor antagonists” (Janssen Pharmaceutica NV, priority 2011, dated 2014) come the findings set out here.

Like-named read-outs stand apart in the source and are kept apart here.

Assay [1] concerns the target human glucagon receptor (GCGR) (Homo sapiens (Human), UniProt P47871). The assay can be described thus: Inhibition of 125I-glucagon binding to membranes from HEK293 cells expressing the human glucagon receptor. The method, then:
Inhibition ^125I-Glucagon Binding to Membranes from HEK293 Cells Expressing the Human Glucagon Receptor (GCGR)
Full-length human GCGR (Accession Number: NM000160) subcloned into pcDNA3.1 was stably transfected into HEK293 cells (hGluc-1 HEK) and maintained under G418 selection (500 μg/mL). Cell cultures were maintained in DMEM/F12 media supplemented with 10% FBS and 1% GlutaMax. Membranes were prepared from these cells as follows: cells were harvested from T225 flasks and re-suspended in hypotonic lysis buffer, 50 mM HEPES pH 7.4 supplemented with Complete Protease inhibitors (Boehringer Mannheim, Indianapolis, Ind.). Cells were dounced 20 times on ice and spun at 700×g to remove nuclei and unlysed cells. The resulting pellet was re-suspended in hypotonic lysis buffer and the above step was repeated. Supernatants from the low speed centrifugation were combined and subsequently spun at 100K×g for 1 hr at 4° C. and the resulting pellet was re-suspended in buffer containing 50 mM HEPES pH 7.4 and 10% sucrose and the protein concentration was adjusted at 1 mg/mL as determined in the BCA assay. Membranes were aliquoted and stored at −80° C. The binding assay was performed by a filtration method in a 384 well format. Membranes at a final protein concentration of 6 μg/well were incubated with ^125I-glucagon at 0.3 nM and in the presence of compound for 2 hours at room temperature in a total reaction volume of 40 μL per well. Assay buffer consisted of 50 mM HEPES, pH 7.4, 5 mM MgCl2, 1 mM CaCl2 and 0.2% BSA. 30 μL of the reaction was then transferred to PEI treated filter plates and followed by filter aspiration. Plates were then washed 5× and allowed to dry at room temperature overnight. The next day the bottom of the plate was covered with seal tape and scintillant was added. Total counts retained by the filters were quantified with a Top Count instrument. IC50's were generated by using a non-linear regression macro driven in Excel and converted to K's.

For a further assay, the target named is human GCGR (Homo sapiens (Human), UniProt P47871). The experiment in a line: Cellular functional assay, cAMP readout (glucagon-stimulated cAMP in HEK293 cells expressing human GCGR). The format is cell-based. The conditions noted are these: hGluc-1 HEK cells, LANCE TR-FRET, IC50 converted to Ki, average if tested more than once. As to the method: IC50 Values in Cellular Functional Assays: cAMP Readout
Full-length human GCGR (Accession Number: NM000160) subcloned into pcDNA3.1 was stably transfected into HEK293 cells (hGluc-1 HEK) and maintained under G418 selection (500 μg/mL). Cell cultures were maintained in DMEM/F12 media supplemented with 10% FBS and 1% GlutaMax. Glucagon stimulated cAMP was quantified using LANCE technology as per manufacturer instructions. On the day of the experiment, spent media was removed and cells were washed with Hank's Buffered Saline solution (HBSS) and cells were harvested with non-enzymatic cell dissociation solution, then washed once with HBSS. Cells were re-suspended in stimulation buffer at a concentration of 0.83×10^6 cells/ml and cAMP detection antibody was added. 6 μl/well of this solution was then dispensed in a 384 well plate (cell density 5000 cells/well). Test compound was serially diluted in DMSO and 50 nl were dispensed on top of the cell solution and allowed to incubate for 30 minutes. 6 μl of a 2× glucagon solution (final concentration in assay […]) was then added and the reaction was terminated after 5 minutes with the addition of detection mix. The mixture was incubated, protected from light for 1.5 h. cAMP levels were quantified by TR-FRET in an EnVision instrument against a known standard. IC50's were generated by using a non-linear regression macro driven in Excel and converted to K, values.
A general note: TR-FRET usually uses a lanthanide donor and a delayed reading to cut background.

Where [2] appears, read: membranes of hGluc-1 HEK cells, 125I-glucagon 0.3 nM, 2 hours room temperature, IC50 converted to Ki, average if tested more than once.

human GCGR, sequence (P47871 26-477): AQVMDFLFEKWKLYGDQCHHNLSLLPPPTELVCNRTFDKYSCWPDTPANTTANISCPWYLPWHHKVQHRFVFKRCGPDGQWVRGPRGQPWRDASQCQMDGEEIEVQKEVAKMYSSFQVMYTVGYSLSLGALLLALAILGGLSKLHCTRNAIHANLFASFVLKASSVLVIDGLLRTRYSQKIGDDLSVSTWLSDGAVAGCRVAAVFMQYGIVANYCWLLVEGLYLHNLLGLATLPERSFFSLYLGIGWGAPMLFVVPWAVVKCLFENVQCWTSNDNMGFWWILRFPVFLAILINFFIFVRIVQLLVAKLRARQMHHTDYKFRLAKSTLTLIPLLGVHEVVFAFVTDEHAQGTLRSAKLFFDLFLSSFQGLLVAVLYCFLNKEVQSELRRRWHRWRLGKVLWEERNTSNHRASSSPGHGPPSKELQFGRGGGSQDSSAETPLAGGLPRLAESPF
human glucagon receptor (GCGR), sequence (P47871 26-477): as above

For orientation: Ki means a measure of affinity in units of concentration, obtained from inhibition or displacement. In the case of `O=C(O)CCNC(=O)c1ccc(-c2cc(F)ccc2CNc2ccc(-c3ccc(Cl)c(Cl)c3)c(F)c2)cn1` [Compound 53, 3-(5-(2-(((3′,4′-dichloro-2-fluoro-[1,1′-biphenyl]-4-yl)amino)methyl)-5-fluorophenyl)picolinamido)propanoic acid], the Ki in assay [1] (setting [2]) came out at 103 nM; on human GCGR it was 495 nM. `O=C(O)CCNC(=O)c1ccc(-c2cc(Cl)ccc2CNc2ccc(-c3ccc(OC(F)(F)F)cc3)c(Cl)c2)cn1` [Compound 140, 3-(5-(5-chloro-2-(((2-chloro-4′-(trifluoromethoxy)-[1,1′-biphenyl]-4-yl)amino)methyl)phenyl)picolinamido)propanoic acid]: the Ki in assay [1] (setting [2]) was 21.5 nM; on human GCGR it was 84.3 nM.

With `Cc1cccc(CNc2ccc(-c3ccc(Cl)cc3)cc2)c1-c1ccc(C(=O)NCCC(=O)O)nc1` [Compound 69, 3-(5-(2-(((4′-chloro-[1,1′-biphenyl]-4-yl)amino)methyl)-6-methylphenyl)picolinamido)propanoic acid], the Ki in assay [1] (setting [2]) is 85.2 nM; on human GCGR it was 500 nM. For `Cc1ccc(-c2ccc(NCc3cc(F)c(F)cc3-c3ccc(C(=O)NCCC(=O)O)nc3)cc2C#N)c(F)c1` [Compound 112, 3-(5-(2-(((2-cyano-2′-fluoro-4′-methyl-[1,1′-biphenyl]-4-yl)amino)methyl)-4,5-difluorophenyl)picolinamido)propanoic acid], the figures for the Ki (in assay [1] (setting [2]); at human GCGR) were 76.5 nM and 280 nM, respectively.

`COc1ccc(-c2ccc(C(=O)NCCC(=O)O)nc2)c(CNc2ccc(-c3ccc(Cl)c(Cl)c3)cc2)c1` [Compound 61, 3-(5-(2-(((3′,4′-dichloro-[1,1′-biphenyl]-4-yl)amino)methyl)-4-methoxyphenyl)picolinamido)propanoic acid]: the figures for the Ki (in assay [1]; on human GCGR) were 97.7 nM and 479 nM, respectively. As to `O=C(O)CCNC(=O)c1ccc(-c2cc(Cl)ccc2CNc2ccc(-c3cccc(OC(F)(F)F)c3)cc2)cn1` [Compound 129, 3-(5-(5-chloro-2-(((3′-(trifluoromethoxy)-[1,1′-biphenyl]-4-yl)amino)methyl)phenyl)picolinamido)propanoic acid], the Ki in assay [1] (setting [2]) stood at 84.6 nM; on human GCGR it was 700 nM. In turn, `Cc1cc(C(F)(F)F)ccc1-c1ccc(NCc2c(-c3ccccc3)cc(C(F)(F)F)cc2-c2ccc(C(=O)NCCC(=O)O)nc2)cc1Cl` [Compound 179, 3-(5-(2-(((2-chloro-2′-methyl-4′-(trifluoromethyl)-[1,1′-biphenyl]-4-yl)amino)methyl)-5-(trifluoromethyl)-[1,1′-biphenyl]-3-yl)picolinamido)propanoic acid] displayed a Ki at human GCGR of 19.6 nM. Still for that read-out and setting: to `O=C(O)CCNC(=O)c1ccc(-c2cc(C(F)(F)F)ccc2CNc2ccc(-c3ccc(Cl)cc3Cl)c(C(F)(F)F)c2)cn1` [Compound 122, 3-(5-(2-(((2′,4′-dichloro-2-(trifluoromethyl)-[1,1′-biphenyl]-4-yl)amino)methyl)-5-(trifluoromethyl)phenyl)picolinamido)propanoic acid] belongs 85 nM; to `O=C(O)CCNC(=O)c1ccc(-c2cc(Cl)ccc2CNc2ccc(-c3ccc(F)cc3F)cc2)cn1` [Compound 18, 3-(5-(5-chloro-2-(((2′,4′-difluoro-[1,1′-biphenyl]-4-yl)amino)methyl)phenyl)picolinamido)propanoic acid], 280 nM. On the same count and under the same terms, the same measure for `N#Cc1cc(NCc2ccc(Cl)cc2-c2ccc(C(=O)NCCC(=O)O)nc2)ccc1-c1ccc(F)c(C(F)(F)F)c1` [Compound 100, 3-(5-(5-chloro-2-(((2-cyano-4′-fluoro-3′-(trifluoromethyl)-[1,1′-biphenyl]-4-yl)amino)methyl)phenyl)picolinamido)propanoic acid]: 135 nM; for `COc1ccc(CNc2ccc(-c3ccc(OC(F)(F)F)cc3)cc2)c(-c2ccc(C(=O)NCCC(=O)O)nc2)c1` [Compound 48, 3-(5-(5-methoxy-2-(((4′-(trifluoromethoxy)-[1,1′-biphenyl]-4-yl)amino)methyl)phenyl)picolinamido)propanoic acid]: over 20000 nM; for `COc1ccc(CNc2ccc(-c3ccc(Cl)cc3)cc2)c(-c2ccc(C(=O)NCCC(=O)O)nc2)c1` [Compound 45, 3-(5-(2-(((4′-chloro-[1,1′-biphenyl]-4-yl)amino)methyl)-5-methoxyphenyl)picolinamido)propanoic acid]: over 20000 nM. Same read-out and setting: to `Cc1cc(Cl)ccc1-c1ccc(NCc2ccc(C(F)(F)F)cc2-c2ccc(C(=O)NCCC(=O)O)nc2)cc1C(F)(F)F` [Compound 119, 3-(5-(2-(((4′-chloro-2′-methyl-2-(trifluoromethyl)-[1,1′-biphenyl]-4-yl)amino)methyl)-5-(trifluoromethyl)phenyl)picolinamido)propanoic acid] belongs 60 nM; to `N#Cc1cc(NCc2ccc(Cl)cc2-c2ccc(C(=O)NCCC(=O)O)nc2)ccc1-c1ccc(Cl)cc1Cl` [Compound 99, 3-(5-(5-chloro-2-(((2′,4′-dichloro-2-cyano-[1,1′-biphenyl]-4-yl)amino)methyl)phenyl)picolinamido)propanoic acid], 65.4 nM; to `Cc1cc(Cl)ccc1-c1ccc(NCc2c(-c3ccc(C(=O)NCCC(=O)O)nc3)cc(C(F)(F)F)cc2C(F)(F)F)cc1` [Compound 81, 3-(5-(2-(((4′-chloro-2′-methyl-[1,1′-biphenyl]-4-yl)amino)methyl)-3,5-bis(trifluoromethyl)phenyl)picolinamido)propanoic acid], 10 nM. Take `COc1ccc(CNc2ccc(-c3ccc(C(C)(C)C)cc3)cc2)c(-c2ccc(C(=O)NCCC(=O)O)nc2)c1` [Compound 49, 3-(5-(2-(((4′-(tert-butyl)-[1,1′-biphenyl]-4-yl)amino)methyl)-5-methoxyphenyl)picolinamido)propanoic acid]: the Ki on human GCGR is over 20000 nM. Take `Cc1cc(C(F)(F)F)ccc1-c1ccc(NCc2ccc(C(F)(F)F)cc2-c2ccc(C(=O)NCCC(=O)O)nc2)cc1C(F)(F)F` [Compound 120, 3-(5-(2-(((2′-methyl-2,4′-bis(trifluoromethyl)-[1,1′-biphenyl]-4-yl)amino)methyl)-5-(trifluoromethyl)phenyl)picolinamido)propanoic acid]: the Ki at human GCGR stood at 37.4 nM.

Consider `COc1ccc(CNc2ccc(-c3cccc(OC(F)(F)F)c3)cc2)c(-c2ccc(C(=O)NCCC(=O)O)nc2)c1` [Compound 50, 3-(5-(5-methoxy-2-(((3′-(trifluoromethoxy)-[1,1′-biphenyl]-4-yl)amino)methyl)phenyl)picolinamido)propanoic acid], for which the inhibitory constant (Ki) at human GCGR is over 20000 nM. For `O=C(O)CCNC(=O)c1ccc(-c2cc(C(F)(F)F)ccc2CNc2ccc(-c3ccc(Cl)cc3)c(C(F)(F)F)c2)cn1` [Compound 123, 3-(5-(2-(((4′-chloro-2-(trifluoromethyl)-[1,1′-biphenyl]-4-yl)amino)methyl)-5-(trifluoromethyl)phenyl)picolinamido)propanoic acid], the affinity on human GCGR, expressed as Ki, was 110 nM. `COc1cc(C(F)(F)F)cc(-c2ccc(C(=O)NCCC(=O)O)nc2)c1CNc1ccc(-c2ccc(C(F)(F)F)cc2Cl)cc1` [Compound 161, 3-(5-(2-(((2′-chloro-4′-(trifluoromethyl)-[1,1′-biphenyl]-4-yl)amino)methyl)-3-methoxy-5-(trifluoromethyl)phenyl)picolinamido)propanoic acid] displayed a Ki at human GCGR of 38.7 nM. `COc1cc(C(F)(F)F)cc(-c2ccc(C(=O)NCCC(=O)O)nc2)c1CNc1ccc(-c2ccc(C(F)(F)F)cc2)c(Cl)c1` [Compound 159, 3-(5-(2-(((2-chloro-4′-(trifluoromethyl)-[1,1′-biphenyl]-4-yl)amino)methyl)-3-methoxy-5-(trifluoromethyl)phenyl)picolinamido)propanoic acid] yielded a Ki on human GCGR of 45.8 nM.
